The values that follow come from the OPERA property sets (Mansouri et al. 2018).

Converted amounts (≈) assume the structure as drawn.

Conditions in one series: not given
The compound `Clc1cc2c(cc1Cl)Oc1c(Cl)c(Cl)c(Cl)c(Cl)c1O2` returned a logP of 7.8.

Compound `Clc1c(Cl)c(Cl)c2c(c1Cl)Oc1ccccc1O2` displayed a logP of 6.6. Regarding `Clc1ccc2c(c1)Oc1c(Cl)c(Cl)c(Cl)c(Cl)c1O2`, the logP turned out to be 7.4. `Clc1ccc2c(c1)Oc1ccc(Cl)cc1O2` came in with a logP of 5.75. `Clc1c(Cl)c(Cl)c2c(c1Cl)Oc1c(Cl)c(Cl)c(Cl)c(Cl)c1O2` yielded a logP of 8.2. On the same count and under the same terms, with `Clc1cc2c(cc1Cl)Oc1cc(Cl)c(Cl)cc1O2` the figure was 6.8; with `c1ccc2c(c1)Oc1ccccc1O2`, 4.3.

On to `Clc1cccc2c1Oc1ccccc1O2`, for which the logP came out at 4.75. Take `Clc1cc(Cl)c2c(c1Cl)Oc1ccccc1O2`: the logP worked out at 6.35. Same read-out and setting: in the case of `Clc1cc2c(c(Cl)c1Cl)Oc1c(Cl)c(Cl)c(Cl)c(Cl)c1O2` it was 8.2; in that of `Clc1ccc2c(c1)Oc1ccccc1O2`, 5.

The same series, now with this note: 25 °C.
`Clc1c(Cl)c(Cl)c2c(c1Cl)Oc1ccccc1O2`: the solubility amounted to 1.96 nM (≈ 0.63 ng/mL). That is a single-digit nanomolar value. Still for that read-out and setting: in the case of `Clc1cc2c(cc1Cl)Oc1cc(Cl)c(Cl)cc1O2` it was 0.621 nM (≈ 0.2 ng/mL).
